According to US20090012152A1, “Use of Tetramic Acid Derivatives for Controlling Insects from the Genus of the Plane Lice (Sternorrhyncha)” (Bayer CropScience Aktiengesellschaft, priority 2005, published 2009):

Key:
Assay type in all cases: in vivo
[1] = system: Bemisia tabaci; assay: Example 32: bell peppers treated against Bemisia tabaci; settings: larvae on leaves, % a.i.: imidacloprid 0.02, I-9, I-2, I-11 0.0144
Experimental: In three replications, plots of a size of 10 m^2 with bell peppers of the cultivar “Italiano” are treated against Bemisia tabaci. The application is carried out using a motor-operated knapsack sprayer. Here, the active compounds Example (I-9) (240 SC), Example (I-2) (60 SC) and Example (I-11) (60 SC) and the commercial standard imidacloprid (200 SL) are applied at the stated application rates. Three applications at an interval of 14 or 15 days are carried out, at an application rate of 1000 or 1100 l of water/ha.
Evaluation is carried out 7, 14 and 22 days after the second treatment by rating the kill of the animals (larvae) on the leaves.

[2] = system: Macrosiphum euphorbiae; assay: Example 43: aubergines treated against Macrosiphum euphorbiae; settings: nymphs on leaves, % a.i.: imidacloprid 0.014, I-9, I-2, I-11 0.0144
Experimental: In three replications, plots of a size of 10 m^2 with aubergines of the cultivar “F 100” are treated against Macrosiphum euphorbiae. The application is carried out using a knapsack sprayer operated with pressurized air. Here, the active compounds Example (I-9) (60 SC), Example (I-2) (60 SC) and Example (I-11) (60 SC) and the commercial standard imidacloprid (70 WG) are tested at the stated application rates. Three applications are carried out, at an interval of 7 or 8 days. The application rate is 1000 l of water/ha.
Evaluation is carried out 7 and 14 days after the second treatment by rating the kill of the nymphs on the leaves.

[3] = system: Bemisia argentifolii; assay: Example 35: aubergines (F 100) treated against Bemisia argentifolii; settings: 7 d after last of three treatments, nymphs on leaves, % a.i.: imidacloprid 0.014, I-9, I-2, I-11 0.0144
Experimental: In three replications, plots of a size of 10 m^2 with aubergines of the cultivar “F 100” are treated against Bemisia argentifolii. The application is carried out using a knapsack sprayer operated with pressurized air. Here, the active compounds Example (I-9) (60 SC), Example (I-2) (60 SC) and Example (I-11) (60 SC) and the commercial standard imidacloprid (70 WG) are tested at the stated application rates. Three applications are carried out, at an interval or 7 or 8 days. The application rate is 1000 l of water/ha.
Evaluation is carried out 7 days after the last treatment by rating the kill of the nymphs on the leaves.

[4] = system: Ceroplastes rubens; assay: Example 12: satsuma trees treated against Ceroplastes rubens; settings: 41 days after treatment; live animals counted, Henderson and Tilton; satsuma tree; % a.i.: buprofezin 0.025, I-4 0.0072
Experimental: In three replications, in each case one about 4-year-old satsuma tree of the cultivar “Nankan 20” is treated against Ceroplastes rubens. Here, the active compound Example (I-4) (240 SC) in a tank mix with 0.1% of rapeseed oil methyl ester (500 EW) at the stated application rate is tested against the commercial standard buprofezin (25 WP) at the stated application rate. The application is carried out using a motor-operated knapsack sprayer. Here, treatment is carried out using an application rate of 400 l of water/ha.
(§1) Evaluation is carried out before and 41 days after the treatment by counting the live animals. The efficacy in percent is then calculated according to Henderson and Tilton.

[5] = system: Saissetia oleae; assay: Example 13: orange trees treated against Saissetia oleae; settings: nymphs on leaves, g a.i./ha/m crown height: buprofezin 500, I-4 72, I-8 30
Experimental: In three replications, in each case two about 8-year-old orange trees are treated against Saissetia oleae. Here, the active compounds Example (I-4) (240 SC) and Example (I-8) (250 SC) in a tank mix with 0.2% a.i. of rapeseed oil methyl ester (500 EW) at the stated application rate are tested against the commercial standard buprofezin in a tank mix with 0.4% a.i. of Oliocin (800 EW) at the stated application rate. The application is carried out using a motor-operated knapsack sprayer. The application rate is 3000 l of water/ha. Two treatments are carried out, at an interval of 29 days.
Evaluation is carried out 24 and 44 days after the last treatment by rating the kill of the nymphs on the leaves.

[6] = system: Pulvinaria aurantii; assay: Example 11: satsuma trees treated against Pulvinaria aurantii; settings: 41 days after treatment; live animals counted, Henderson and Tilton; satsuma tree; % a.i.: buprofezin 0.025, I-4 0.0144
Experimental: In three replications, in each case one about 4-year-old satsuma tree of the cultivar “Nankan 20” is treated against Pulvinaria aurantii. Here, the active compound Example (I-4) (240 SC) in a tank mix with 0.2% of rapeseed oil methyl ester (500 EW) at the stated application rate is tested against the commercial standard buprofezin at the stated application rate. The application is carried out using a motor-operated knapsack sprayer. Here, each plant is treated with 400 ml of spray liquor.
as §1

[7] = system: Orthezia praelonga; assay: Example 25: orange trees treated against Orthezia praelonga; settings: population on leaves, % a.i.: methidathion 0.05, I-4 0.0144, I-9 0.0144
Experimental: In two replications, two about 7-year-old orange trees of the cultivar “Pera Rio” are treated against Orthezia praelonga. Here, the active compounds Example (I-4) (240 SC) and Example (I-9) (240 SC), in a tank mix with 0.1% a.i. of Renex, are tested against the commercial standard Methidathion (400 EC), at the stated application rates. The application is carried out using a knapsack sprayer operated with pressurized air. Evaluation is carried out 6 and 16 days after the treatment by rating the kill of the population on the leaves.

[8] = system: Selenaspidius articulatus; assay: Example 19: orange trees treated against Selenaspidius articulatus; settings: 100 d after treatment, on leaves, % a.i.: methidathion 0.05, I-9 0.0288, I-4 0.0144
Experimental: In three replications, 3-year-old orange trees of the cultivar “Pera natal” are treated against Selenaspidius articulatus. The application is carried out using a motor-operated knapsack sprayer. Here, the active compounds Example (I-9) (240 SC) and Example (I-4) (240 SC) at the stated application rate are tested against the standard methidathion (400 EC) in the stated amounts, applied once. The application rate is 3.3 l of water per tree.
Evaluation is carried out 100 days after the treatment by rating the kill on the leaves.

[9] = system: Lepidosaphes beckii; assay: Example 18: citrus trees treated against Lepidosaphes beckii; settings: 140 days after treatment, larvae on fruits, g a.i./ha/m crown height: pyriproxyfen 50, I-4 48
Experimental: In three replications, in plots of a size of about 20 m^2, citrus trees of the cultivar “Oro Nules” are treated against Lepidosaphes beckii. The application is carried out using a high-pressure sprayer. Here, the active compound Example (I-4) (240 SC) in a tank mix with 0.1% a.i. of rapeseed oil methyl ester (500 EW) is tested against the commercial standard pyriproxyfen (100 EC), at the stated application rates. The application rate is 2500 l of water/ha.
Evaluation is carried out 140 days after the treatment by rating the kill of the larvae on the fruits.

[10] = system: Pseudococcus citri; assay: Example 27: orange trees treated against Pseudococcus citri; settings: 56 d after last of two treatments, on fruits, % a.i.: pyriproxyfen 0.005, I-9 0.0096
Experimental: (§2) In three replications, orange trees of the cultivar “Navelina” are treated against Parlatoria pergandei and Pseudococcus citri. Two applications are carried out at an interval of 77 days using a motor-operated knapsack sprayer. Here, the active compound Example (I-9) (240 SC), in a tank mix with 0.1% a.i. of rapeseed oil methyl ester (500 EW), at the stated amount, is tested against the commercial standard pyriproxyfen (100 EC), at the stated amounts. The application rate is 3000 l of water/ha.
(§3) Evaluation is carried out 56 days or 73 days after the last treatment by rating the kill in percent on the fruits.

[11] = system: Saissetia oleae; assay: Example 14: orange trees (Navelina) treated against Saissetia oleae; settings: 120 d after treatment, kill on branches, % a.i.: Dursban 0.096, I-4 0.012, I-9 0.0054, pyriproxyfen 0.005
Experimental: In three replications, orange trees of the cultivar “Navelina” are treated against Saissetia oleae. Here, the active compounds Example (I-4) (240 SC) and Example (I-9) (240 SC) in a tank mix with 0.1% of rapeseed oil methyl ester (500 EW) at the stated application rate are tested against the commercial standards Dursban (480 EC) and pyriproxyfen (100 EC) at the stated application rate. The application is carried out using a motor-operated knapsack sprayer. The application rate is 3200 l of water/ha.
Evaluation is carried out 120 days after the treatment by rating the kill of the animals on the branches.

[12] = system: Parlatoria pergandei; assay: Example 27 / 18a: orange trees treated against Parlatoria pergandei; settings: 73 d after last of two treatments, on fruits, % a.i.: pyriproxyfen 0.005, I-9 0.0096
Experimental: The evaluation for Example 18a against Parlatoria pergandei is carried out as part of the test as described in Example 27 and is listed separately in Example 27.
as §2, §3

CCCC(=O)OC1=C(c2cc(C)c(C)cc2C)C(=O)NC12CCC(OCC)CC2 (centres unmarked) [Example (I-11)]
Kill (%) 7 d ([1]; 7 d after second treatment): 85.4% | Kill (%) 14 d ([1]; 14 d after second treatment): 93.3% | Kill (%) 22 d ([1]; 22 d after second treatment): 91.3% | Kill (%) 7 d ([2]; 7 d after second treatment): 98% | Kill (%) 14 d ([2]; 14 d after second treatment): 99% | Kill (%) 7 d [3]: 94%

CC(C)N1C(=O)N(c2ccccc2)CS/C1=N\C(C)(C)C [buprofezin, reference compound]
Effect (%) [4]: 50% | Kill (%) 24 d ([5]; 24 d after last of two treatments): 33.5% | Kill (%) 44 d ([5]; 44 d after last of two treatments): 50.5% | Effect (%) [6]: 68%

COc1nn(CSP(=S)(OC)OC)c(=O)s1 [methidathion, reference compound]
Kill (%) 6 d ([7]; 6 d after treatment): 91% | Kill (%) 16 d ([7]; 16 d after treatment): 61% | Kill (%) 100 d [8]: 77%

CC(COc1ccc(Oc2ccccc2)cc1)Oc1ccccn1 (centres unmarked) [pyriproxyfen, reference compound]
Kill (%) 140 days [9]: 100% | Kill (%) 56 d [10]: 28.8% | Effect (%) 120 d [11]: 100% | Kill (%) 73 d [12]: 97.5%
